# From patent US20100160391A1, “Substituted Aminopyridines as Fluorescent Reporters for Amide Hydrolases” (priority 2006, published 2010)
# Assays:
# [1] = target: T1, fatty acid amide hydrolase (FAAH) (Homo sapiens, UniProt O00519); experiment: Kinetic study of FAAH toward substrates; format: biochemical
# T1 construct: made in house; host or cells: Trichoplusia ni High Five cells infected with recombinant baculovirus Ac-hFAAH; microsomal fraction
# T1 sequence (O00519 1-579): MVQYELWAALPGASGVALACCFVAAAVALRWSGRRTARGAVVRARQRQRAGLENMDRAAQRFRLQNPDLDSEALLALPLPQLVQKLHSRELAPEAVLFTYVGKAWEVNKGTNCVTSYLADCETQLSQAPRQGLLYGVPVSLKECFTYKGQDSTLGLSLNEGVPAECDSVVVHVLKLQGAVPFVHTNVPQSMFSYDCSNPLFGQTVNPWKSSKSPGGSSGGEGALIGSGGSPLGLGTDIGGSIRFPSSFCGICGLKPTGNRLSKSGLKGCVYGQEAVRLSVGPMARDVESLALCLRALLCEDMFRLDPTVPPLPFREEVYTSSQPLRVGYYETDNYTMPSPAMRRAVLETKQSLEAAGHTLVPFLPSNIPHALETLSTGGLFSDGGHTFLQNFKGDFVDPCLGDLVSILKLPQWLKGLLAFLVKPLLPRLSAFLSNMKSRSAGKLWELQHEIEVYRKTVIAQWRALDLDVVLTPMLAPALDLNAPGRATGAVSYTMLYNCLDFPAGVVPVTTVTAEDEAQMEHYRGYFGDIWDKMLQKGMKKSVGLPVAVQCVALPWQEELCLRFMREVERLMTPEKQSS
# Description: Preparation of recombinant human FAAH. Transgenic expression of the human FAAH in a baculovirus system was performed by following the method described in Nishi et al., Arch. Biochem. Biophys., 445:115-123 (2006). The cDNA encoding human FAAH (GenBank Accession No. NM_001441) was amplified by PCR using a human liver cDNA library (Invitrogen; Carlsbad, Calif.) as a template. The primer pair was 5′-[…]-3′ and 5′-[…]-3′. BglII and EcoRI endonuclease sites (underlined) were incorporated just upstream of the start codon and downstream of the stop codon of the coding sequence of FAAH, respectively. The PCR products were cloned into a pCR2.1 vector (Invitrogen) and the nucleotide sequence was verified by DNA sequencing. The cDNA fragments were then excised and directionally ligated to the BglII and EcoRI sites of the baculovirus transfer vector pAcUW21 (Lopez-Ferber et al., Baculovirus transfer vectors, in “Baculovirus Expression Protocols,” Richardson (Ed.), pp 25-63, Humana Press, Totowa, N.J., 1995). Recombinant baculoviruses harboring the human FAAH gene, Ac-hFAAH, were generated by co-transfection of Spodoptera frugiperda-derived Sf21 cells with the recombinant transfer vector plasmid and Bsu36I-cleaved BacPAK6 viral DNA (Clontech Laboratories; Mountain View, Calif.) as described in O'Reilly et al., Baculovirus Expression Vectors: A Laboratory Manual, Oxford University Press, New York, 1992. Trichoplusia ni-derived High Five cells (1×10^6 cells/ml) were inoculated with a high titer of Ac-hFAAH. At 72 hours post-infection, the infected cells were harvested by centrifugation at 2,000×g for 20 min at 4° C. and suspended in 50 mM Tris-HCl (pH 8.0) containing 150 mM NaCl, 1 mM EDTA, 1 μM pepstatin, 100 μM leupeptin, and 0.1 mg/ml aprotinin. The cell suspension was then homogenized using a Polytron homogenizer and centrifuged at 10,000×g for 20 min at 4° C. The microsomal fraction was collected by ultracentrifugation of the supernatant at 100,000×g for 60 min at 4° C. The pellet was resuspended in 20 mM Tris-HCl (pH 8.0) containing 10% (w/v) glycerol and 1% (w/v) Triton-X 100 and stored at −80° C. until use.
# Kinetic study. The kinetic assays were also performed as described above for the sensitivity assay. Briefly, a total volume of 201 μl contained 0.1 M sodium phosphate buffer (pH 8.0) (190 μl) with 1% glycerol and 0.1% Triton-X 100, protein solution (10 μl), and substrate solution (1 μl). The protein content was 0.67 μg per well (201 μl). The concentration of substrate (13) in DMSO was 200, 100, 50, 25, 12.5, 6.25, 3.13, 1.56, or 0.78 μM. Similarly, the concentration of substrate (17) in DMSO was 100, 50, 25, 12.5, 6.25, 3.13, 1.56, 0.78, or 0.39 μM. Four replicates were applied for each concentration. Reported kinetic data (km and Vmax) were analyzed by the SigmaPlot Enzyme Kinetics software (2001) using the Michaelis-Menten equation for all concentrations.
# [2] = Dependence of relative fluorescent intensity on pH values; format: physicochemical; conditions: 25 μM, pH 8, excitation 302 nm
# Description: The dependence of relative fluorescent intensity on pH values. 5-amino-2-methoxypyridine (6) was used to determine whether protonization/de-protonization affects the relative fluorescent intensities of the reporters. A stock solution of (6) in ethanol (5 μl, 5 mM) was added to 995 μl 0.1 M sodium phosphate buffer (from pH 6.0 to pH 8.0) or 0.1 M Tris/HCl buffer (pH 9.0) in a quartz cuvette (final substrate concentration 25 μM). Relative fluorescent unit/intensity (RFU) for emission spectra was recorded by a 2 nm interval at room temperature using a fixed excitation wavelength (λ=302 nm). The RFU of each pH value was an average of triplicates and the standard deviation for each point was less than 1%. Similarly, the RFU of the excitation spectrum was recorded by a 2 nm interval at room temperature using a fixed emission wavelength (λ=396 nm) in 0.1 M phosphate buffer (pH 8.0).
# [3] = pH 8.0, 37° C., 0.67 μg protein per well, Michaelis-Menten
smiles,measurement,setting,value
"CCCCCCCC(=O)Nc1ccc(OC)nc1 [Compound 13, N-(6-methoxypyridin-3-yl) octanamide]",Selectivity ratio,[1]; Vmax/Km of substrate over that of oleamide (5.5 × 10^−2),74.5
same,Km,[1]; [3],74.9 µM
same,Vmax,[1]; [3],305 nmol/min/mg
same,difference in Vmax between (13) and (17),[1]; saturating substrate concentration,8 fold
same,relative fluorescent intensity of substrate emission at the maximal excitation wavelength of (6),[2],less than 200 RFU
